From patent publication US10351915B2 (Berg LLC, priority 2009, dated 2019)
Where two headings read alike, the source gives them in different places.

Experiments:
[1] = cited from earlier work
[2] = tested on: HDFa cells; assay: Oxygen consumption rate (OCR), SeaHorse XF analyzer; assay type: cell-based, human; settings: normal cells (HDFa)
From the text: (SeaHorse Biosciences Inc, North Billerica, Mass.).
In this experiment, the OCR and extracellular acidification rate (ECAR) in normal cells lines were obtained in the presence and absence of CoQ10 to determine baseline values. It was observed that in its native nutrient environment, the basal OCR rates in normal cells lines are different, and are usually a function of the physiological roles of the cells in the body.
FIGS. 37 and 38 below describes the OCR in HDFa and HASMC cells grown in physiologically normal glucose (about 4.6 mM) and high glucose (hyperglycemic) conditions.

[3] = tested on: SKBr3; assay: Nexin assay for apoptosis (flow cytometry); assay type: cell-based, human; settings: 50 μM or 100 μM Q10, 24 hours
From the text: The 7AAD dye will enter into cells with permeabilized cell membranes; primarily those cells that are in late apoptosis. Annexin-V-PE is a dye that binds to Phosphotidyl serine, which is exposed on the outer surface of the plasma membrane in early apoptotic cells. The Nexin reagent thus can be used to differentiate between different populations of apoptotic cells in a flow cytometer.

[4] = tested on: SCC cells; assay: Real-time PCR Apoptosis Array; assay type: cell-based
From the text: The control cells were untreated cells.
RNA was quantified by measuring Optical Density at 260 nm.

[5] = one study with rats; cited from earlier work
[6] = tested on: Isocitrate Dehydrogenase-1 (IDH-1); assay: Western blot, IDH1 levels; assay type: cell-based, human
Method: The whole cell pellets were resuspended one at a time in 1 mL of C7 buffer and transferred to labeled 15 mL tubes. The samples were then sonicated in the cold room on ice using 6 sonic pulses with the setting at #14. The samples were spun for a short time to 2500 g after sonication and the samples transferred to 2 ml tubes. The pH was verified of each sample (pH should be 9.0) using the foam remaining in the […] sample tubes.
Alkylation and reduction of samples was performed for each sample by adding 10 ul of 1M acrylamide, 25 ul of tributylphoshene and incubation for 90 mins with intermittent mixing. After incubation, 10 ul of 1M DTT was added and the tubes were spun at 20,000 g at 20 deg C. for 10 minutes and transferred the supernatant to labeled Amicon Ultra centrifugal filter units with a 10 k cut off (Millipore catalog # UFC 801024). The samples were spun for 15 minutes at 2500 g in 2 intervals. The conductivity was measured for Chaps alone as well as the samples using a conductivity meter. If the conductivity of samples is high, then 1 ml of chaps was added for buffer exchange and spun again at 2500 g until the volume was down to 250 ul. When the conductivity was 200 or less the samples were spun in 5 min intervals at 2500 g until the volume of the supernatant was between 150-100 ul. The sample supernatants were transferred to eppendorf tubes and Bradford assay was performed using BSA as standard.
The samples were processed as per standard protocols as described above and the amount of protein in each of the samples was determined by Bradford assay. Sample volumes equivalent to 10 ug of protein were prepared as shown below with Lamelli Loading dye (LDS) and MilliQ water were run on a 4-12% Bis-Tris Novex NuPAGE gel (Invitrogen, cat # NP0323Box)
The gels were run for 50 minutes using 1×MOPS buffer using a NOVEX Xcell Surelock system at 200 V. The gels were then transferred for 1 hour using a NOVEX Xcell Surelock wet transfer protocol at 30 V. The blots were stained with Simply Blue Safestain from Invitrogen (LC6065).
After transfer each of the blots was placed in between 2 Whatman Filter papers and dried for 15-20 minutes. After drying the blots were labeled with the date, the type of samples and either blot 1 or blot 2 using a HB pencil. The molecular weight markers were outlined with the pencil and with single lines for the blue and a doublet for the colored markers. The blots were activated with methanol for 5 seconds, washed with water for 5 minutes, and TBST for 15 minutes. The blots were blocked for 1 hour with 5% blocking reagent in TBS-T at room temperature and then washed 3 times with TBS-T (1×-15′; 2×5′ each). […]

[7] = tested on: pancreatic cancer; settings: intravenous
[8] = tested on: a variety of cell types; assay: Western blot analysis (Bcl-xL, Vimentin, oxidative phosphorylation and mitochondrial membrane proteins); assay type: cell-based; settings: 50 or 100 μM Q10
Method: Approximately 50 μg of protein were assayed per sample by immunoblotting. All treatments were run in triplicate with controls. […] The primary antibodies were incubated overnight at 4 degrees C. in a 5% BSA and TBST solution. Secondary antibodies were incubated for one hour at 4 degrees. All antibodies were purchased from Cell Signaling Technology. Antibodies were used at a ratio of 1:1000, with the exception of βActin at a ratio of 1:5000. Blots were developed and results were quantified using the NIH Java based densitometer analysis software Image J. All blots were also probed for and normalized to their respective βActin expression.
The first experiment processed and evaluated by Western blot and 2-D gel electrophoresis was carried out on the skin cancer cell line SKMEL-28.
A variety of cell types were evaluated by Western blot analysis against an antibody for Bcl-xL (FIG. 14), an antibody for Vimentin (FIG. 15), a series of antibodies for mitochondrial oxidative phosphorylation function (FIGS. 16-21) and against a series of antibodies related to mitochondrial membrane integrity (FIGS. 22-27).

In the case of `COC1=C(OC)C(=O)C(C/C=C(\C)CC/C=C(\C)CC/C=C(\C)CC/C=C(\C)CC/C=C(\C)CC/C=C(\C)CC/C=C(\C)CC/C=C(\C)CC/C=C(\C)CCC=C(C)C)=C(C)C1=O` [Q10, Coenzyme Q10], the solubility in water [1] is listed as “insoluble in water”, the OCR [2] is listed as “influenced OCR” and the “early and late apoptosis” value [3] is listed as “did not show any significant increases of early and late apoptosis”. For the same compound, the “Regulation (mRNA)” value ([4]; 100 μM Q10, at 6 hours) was “Down regulated at 6 hours”, the “Regulation (mRNA)” value ([4]; 100 μM Q10, at 24 hours, BAX mRNA) was “Up regulated at 24 hours” and the “Regulation (mRNA)” value ([4]; 100 μM Q10, at 24 hours, BNIP3 mRNA) was “Down regulated at 24 hours”. The “orally-administered CoQ10 absorbed” value [5] was 2-3%, the “IDH1, Average Normalized Intensity” value ([6]; HDFa cells, HDF24-100 (HDF, Media = 346)) was 600 and the “expression pattern of IDH1” value ([6]; HDFa, nFIB and HASMC) was “did not demonstrate significant changes”. For the same compound, the “expression of IDH1” value ([6]; SCC25 cell lines) was “moderate increase in expression”, the “expression of IDH1” value ([6]; cancer cell lines MCF-7, SKMEL28, HepG2 and PaCa-2) was “increased expression” and the animals alive ([7]; 5 mg/kg (Group D), after 28 days) was “most of the animals”. For the same compound, the animals alive ([7]; 10 mg/kg (Group E), after 28 days) was “most of the animals”, the animals alive ([7]; 25 mg/kg (Group F), after 28 days) was “most of the animals” and the animals alive ([7]; 50 mg/kg (Group G), at 28 days) was “all of the animals”. The “levels of examined proteins” value [8] was “several of the examined proteins were upregulated or downregulated”.
